From US9540391B2, “Isomannide derivatives as inhibitors of soluble epoxide hydrolase” (SANOFI, priority 2013, dated 2017)
Counter-ions that a name gives are not always drawn.

Target: T1, recombinant sEH (Homo sapiens, UniProt P34913)
T1 construct: made in house; host or cells: Sf9 insect cells
T1 sequence (P34913 1-555): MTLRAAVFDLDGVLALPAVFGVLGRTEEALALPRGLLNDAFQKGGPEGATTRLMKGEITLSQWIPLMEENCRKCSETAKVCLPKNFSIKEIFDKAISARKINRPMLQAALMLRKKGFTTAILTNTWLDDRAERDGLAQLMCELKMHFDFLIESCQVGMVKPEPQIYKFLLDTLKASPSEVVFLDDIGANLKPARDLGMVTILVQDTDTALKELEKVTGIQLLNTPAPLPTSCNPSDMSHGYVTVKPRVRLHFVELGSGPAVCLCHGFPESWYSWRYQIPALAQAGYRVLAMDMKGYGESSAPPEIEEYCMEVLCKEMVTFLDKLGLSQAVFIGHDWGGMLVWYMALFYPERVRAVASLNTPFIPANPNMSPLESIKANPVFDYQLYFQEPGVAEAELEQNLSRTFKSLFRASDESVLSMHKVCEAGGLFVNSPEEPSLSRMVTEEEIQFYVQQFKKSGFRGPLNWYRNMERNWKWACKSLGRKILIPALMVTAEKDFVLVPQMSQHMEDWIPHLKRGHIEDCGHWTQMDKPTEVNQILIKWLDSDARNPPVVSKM
Assay: biochemical screening assay for inhibition of soluble epoxide hydrolase (fluorometric, Phome substrate)
Description: The ability of the compounds of the formula I to inhibit soluble epoxide hydrolase can be determined as follows:
Compounds were tested in a biochemical screening assay using recombinant sEH purified from Sf9 insect cells and an artificial substrate, (3-phenyl-oxiranyl)-acetic acid cyano-(6-methoxy-naphtalen-2-yl)-methyl ester, Phome. The biochemical assay was performed in analogy to a fluorometric method described in the literature (P. D. Jones et al., Anal. Biochem. 2005, 343, 66-75). The assay principle bases on the sEH-catalyzed hydrolysis of an artificial α-cyano-ester substrate. 0-deacetylation liberates a cyanohydrin intermediate that rapidly decomposes to the highly fluorescent 6-methoxy-2-naphtaldehyde. To discriminate sample autofluorescence, the assay was carried out as a kinetic measurement with two time points. The first measurement is performed immediately before addition of the substrate and the second measurement is done after completion of the assay. The assay format is either in 96- or in 384-well format. Details of the assay using a 96-well plate format are described below. 40 μL recombinant sEH enzyme and 5 μL test compound are pre-incubated for 15 minutes at 30° C. Following pre-incubation, the reaction is started by addition of 5 μL Phome. The assay mixture containing 2 nM final sEH concentration, test compound ranging in a concentration from 0.0001-10 μM and 5 μM Phome is incubated for 60 minutes at 30° C.
Fluorescence can be measured with any suitable detector for instance a TECAN Safire or Tecan Ultra at […]. % inhibition of recombinant sEH activity is used for calculation of corresponding IC50 values as illustrated and described in the examples.
The NCBI gene bank reference sequence with the accession number NM_001979 for EPHX2/sEH was applied for recombinant protein production:
The following commercially available materials have been used: • Incubation reagent: 25 mM Hepes (Sigma-Aldrich, Cat. No H-3375), 0.01% bovine albumin (Sigma-Aldrich Cat. No PA9205) • Substrate: 3-Phenyl-oxiranyl)-acetic acid cyano-(6-methoxy-naphtalen-2-yl)-methyl ester, Phome (Biozol Cat. No 10003134) • Microtiter plates: 96-well plates (Greiner Cat. No 655180; Costar Cat. No 3915)

Structure (SMILES) | IC50
COC(=O)c1ccc2cc(O[C@H]3CO[C@H]4[C@@H]3OC[C@@H]4NC(=O)NC3CCCCC3)ccc2c1 [Example 148, 6-[(3S,3aS,6S,6aR)-6-(3-Cyclohexyl-ureido)-hexahydro-furo[3,2-b]furan-3-yloxy]-naphthalene-2-carboxylic acid methyl ester] | 3 nM
Cc1ncccc1O[C@H]1CO[C@H]2[C@@H]1OC[C@@H]2NC(=O)NC(C)(C)CN1CCOCC1 [Example 197, 1-(1,1-Dimethyl-2-morpholin-4-yl-ethyl)-3-[(3S,3aR,6S,6aS)-6-(2-methyl-pyridin-3-yloxy)-hexahydro-furo[3,2-b]furan-3-yl]-urea] | 1140 nM
Cc1ncccc1O[C@H]1CO[C@H]2[C@@H]1OC[C@@H]2NC(=O)NC1CCC(C)CC1C (stereo partly drawn) [Example 276, 1-(2,4-Dimethyl-cyclohexyl)-3-[(3S,3aR,6S,6aS)-6-(2-methyl-pyridin-3-yloxy)-hexahydro-furo[3,2-b]furan-3-yl]-urea] | 1 nM
Cc1ncccc1O[C@H]1CO[C@H]2[C@@H]1OC[C@@H]2NC(=O)NCC1(c2ccccc2)CCCC1 [Example 184, 1-[(3S,3aR,6S,6aS)-6-(2-Methyl-pyridin-3-yloxy)-hexahydro-furo[3,2-b]furan-3-yl]-3-(1-phenyl-cyclopentylmethyl)-urea] | 6 nM
Cc1cc(S[C@H]2CO[C@H]3[C@@H]2OC[C@@H]3NC(=O)NC2CCCCC2)nc(C)n1 [Example 61, 1-Cyclohexyl-3-[(3S,3aR,6S,6aS)-6-(2,6-dimethyl-pyrimidin-4-ylsulfanyl)-hexahydro-furo[3,2-b]furan-3-yl]-urea] | < 1 nM
O=C(Nc1ccc(Cl)c(Cl)c1)NC1COC2C(C#Cc3ccccc3)COC12 [Example 290, 1-(3,4-Dichloro-phenyl)-3-[(3S,3aR,6R)-6-((S)-phenylethynyl)-hexahydro-furo[3,2-b]furan-3-yl]-urea] | 13 nM
Cc1ncccc1O[C@H]1CO[C@H]2[C@@H]1OC[C@@H]2NC(=O)N[C@H]1CC[C@@H](C)CC1 [Example 272, 1-(cis-4-Methyl-cyclohexyl)-3-[(3S,3aR,6S,6aS)-6-(2-methyl-pyridin-3-yloxy)-hexahydro-furo[3,2-b]furan-3-yl]-urea] | 1 nM
O=C(N[C@H]1CO[C@H]2[C@@H]1OC[C@@H]2Oc1ccc(F)cc1)N[C@@H]1CCC[C@H]1OCc1ccccc1 [Example 152, 1-((1R,2R)-2-Benzyloxy-cyclopentyl)-3-[(3S,3aR,6S,6aS)-6-(4-fluoro-phenoxy)-hexahydro-furo[3,2-b]furan-3-yl]-urea] | 2 nM
Cc1ncccc1O[C@H]1CO[C@H]2[C@@H]1OC[C@@H]2NC(=O)NCC1(O)CCCCC1 [Example 182, 1-(1-Hydroxy-cyclohexylmethyl)-3-[(3S,3aR,6S,6aS)-6-(2-methyl-pyridin-3-yloxy)-hexahydro-furo[3,2-b]furan-3-yl]-urea] | 96 nM
O=C(NC1CCCCC1)N[C@H]1CO[C@H]2[C@@H]1OC[C@@H]2Oc1ccc(F)c(Br)c1 [Example 146, 1-[(3S,3aR,6S,6aS)-6-(3-Bromo-4-fluoro-phenoxy)-hexahydro-furo[3,2-b]furan-3-yl]-3-cyclohexyl-urea] | 2 nM
O=C(NC1CCCCC1)N[C@H]1CO[C@H]2[C@@H]1OC[C@@H]2Oc1cccn2ccnc12 [Example 130, 1-Cyclohexyl-3-[(3S,3aR,6S,6aS)-6-(imidazo[1,2-a]pyridin-8-yloxy)-hexa-hydro-furo[3,2-b]furan-3-yl]-urea] | 38 nM
Cc1ncccc1O[C@H]1CO[C@H]2[C@@H]1OC[C@@H]2NC(=O)NC[C@H]1C[C@H]2C[C@@H]([C@@H]1C)C2(C)C [Example 178, 1-[(3S,3aR,6S,6aS)-6-(2-Methyl-pyridin-3-yloxy)-hexahydro-furo[3,2-b]furan-3-yl]-3-((1S,2S,3S,5R)-2,6,6-trimethyl-bicyclo[3.1.1]hept-3-ylmethyl)-urea] | 5 nM
O=C(NC1CCCCC1)N[C@H]1CO[C@H]2[C@@H]1OC[C@@H]2Oc1ccc(Cl)nc1 [Example 51, 1-[(3S,3aR,6S,6aS)-6-(6-Chloro-pyridin-3-yloxy)-hexahydro-furo[3,2-b]furan-3-yl]-3-cyclohexyl-urea] | 8 nM
COc1ccc([C@@H](C)NC(=O)N[C@H]2CO[C@H]3[C@@H]2OC[C@@H]3Oc2ccc(F)cc2)cc1 [Example 168, 1-[(3S,3aR,6S,6aS)-6-(4-Fluoro-phenoxy)-hexahydro-furo[3,2-b]furan-3-yl]-3-[(R)-1-(4-methoxy-phenyl)-ethyl]-urea] | 6 nM
Cc1nc(CCNC(=O)N[C@H]2CO[C@H]3[C@@H]2OC[C@@H]3Oc2cccnc2C)cs1 [Example 218, 1-[(3S,3aR,6S,6aS)-6-(2-Methyl-pyridin-3-yloxy)-hexahydro-furo[3,2-b]furan-3-yl]-3-[2-(2-methyl-thiazol-4-yl)-ethyl]-urea] | 389 nM
NC[C@H]1CO[C@H]2[C@@H]1OC[C@@H]2NC(=O)NC1CCCCC1 [Example 8, 1-((3S,3aR,6S,6aR)-6-aminomethyl-hexahydro-furo[3,2-b]furan-3-yl)-3-cyclohexyl-urea; trifluoroacetate] | 14500 nM
O=C(N[C@H]1CO[C@H]2[C@@H]1OC[C@@H]2Oc1ccc(F)cc1)NC1(c2cccs2)CCOCC1 [Example 169, 1-[(3S,3aR,6S,6aS)-6-(4-Fluoro-phenoxy)-hexahydro-furo[3,2-b]furan-3-yl]-3-(4-thiophen-2-yl-tetrahydro-pyran-4-yl)-urea] | 4460 nM
Cc1cccc(NC(=O)NC2COC3C(CCc4ccccc4)COC23)c1 [Example 357, 1-[(3S,3aR,6R)-6-((S)-Phenethyl)-hexahydro-furo[3,2-b]furan-3-yl]-3-m-tolyl-urea] | 84 nM
Cc1ncccc1O[C@H]1CO[C@H]2[C@@H]1OC[C@@H]2NC(=O)NC1CCOCC1 [Example 216, 1-[(3S,3aR,6S,6aS)-6-(2-Methyl-pyridin-3-yloxy)-hexahydro-furo[3,2-b]furan-3-yl]-3-(tetrahydro-pyran-4-yl)-urea] | 125 nM
O=C(NC1CCCCC1)N[C@H]1CO[C@H]2[C@@H]1OC[C@@H]2Sc1ccc(F)cc1 [Example 15, 1-Cyclohexyl-3-[(3S,3aR,6S,6aS)-6-(4-fluoro-phenylsulfanyl)-hexahydro-furo[3,2-b]furan-3-yl]-urea] | < 1 nM
O=C(NC1CCCCC1)N[C@H]1CO[C@H]2[C@@H]1OC[C@@H]2Oc1cccc(N2CCOCC2)c1 [Example 100, 1-Cyclohexyl-3-[(3S,3aR,6S,6aS)-6-(3-morpholin-4-yl-phenoxy)-hexa-hydro-furo[3,2-b]furan-3-yl]-urea] | 2 nM
O=C(NC1CCCCC1)N[C@H]1CO[C@H]2[C@@H]1OC[C@@H]2Oc1ccc(Br)cc1 [Example 138, 1-[(3S,3aR,6S,6aS)-6-(4-Bromo-phenoxy)-hexahydro-furo[3,2-b]furan-3-yl]-3-cyclohexyl-urea] | 3 nM
COc1cc(CNC(=O)N[C@H]2CO[C@H]3[C@@H]2OC[C@@H]3Oc2cccnc2C)ccn1 [Example 203, 1-(2-Methoxy-pyridin-4-ylmethyl)-3-[(3S,3aR,6S,6aS)-6-(2-methyl-pyridin-3-yloxy)-hexahydro-furo[3,2-b]furan-3-yl]-urea] | 28 nM
Cc1ncccc1O[C@H]1CO[C@H]2[C@@H]1OC[C@@H]2NC(=O)N1CCCC(F)(F)C1 [Example 278, 3,3-Difluoro-piperidine-1-carboxylic acid [(3S,3aR,6S,6aS)-6-(2-methyl-pyridin-3-yloxy)-hexahydro-furo[3,2-b]furan-3-yl]-amide] | 924 nM
